Source: patent publication US9598441B2, “Therapeutic compounds and methods” (Wayne State University, priority 2011, dated 2017)

Columns and labels:
[1] = test system: HBC, colon, prostate, pancreatic cancer, MPM and lymphoma cells; assay: MTT cell viability assay, cancer cells; assay type: cell-based, human
Method: Logarithmically growing cells were either untreated or treated with different agents for various time periods. The cells were lysed to prepare protein extracts. IP was carried out by incubating approximately 1 mg of the protein lysate with appropriate antibodies, and the immunoprecipitates or cell lysates were then electrophoresed on 9-12% SDS-polyacrylamide gels, and transferred to nitrocellulose membranes. The membranes were subsequently probed with various antibodies to determine expression/presence of the corresponding proteins. The cell growth inhibition was assessed by using MTT assay. Briefly, MTT (3-[4,5-Dimethylthiazol-2-yl]-2,5diphenyltetrazolium bromide) was dissolved in sterile 1×PBS to prepare a stock solution of 5 mg/ml. The solution was subsequently filtered through 0.2 μm filter and stored at 2-8° C. 4−5×10^2 cells were seeded in 96-well plates. After 72 h incubation with or without different agents, MTT stock solution was added to each culture being assayed to equal one tenth the original culture volume, followed by incubation of cells at 37° C. for another 2 h. At the end of the incubation, the media was removed and cells were treated with 100-200 μl of DMSO to solubilize the dye. The assessment of the live cells was derived by measuring the absorbance of the converted dye at wavelength of 570 nm.
To test whether CFMs that interfere with CARP-1 binding with APC-2 modulate cell growth, HBC, colon, prostate, pancreatic cancer, MPM and lymphoma cells, as well as the immortalized, mammary epithelial MCF-10A cells were utilized. The cells were either treated with vehicle (DMSO) or various doses of the respective compound for a period of 72 h, and percent of live/viable cells for each compound was determined relative to the untreated controls as described in Methods.

[2] = target: T1, CARP-1 binding with APC-2 (Homo sapiens, UniProt Q8IX12); assay: Fluorescence polarization assay (FPA) for inhibitors of CARP-1-APC-2 binding; conditions: fluorescein-tagged A-epitope peptide and Gst-APC-2 (685-754)
T1 construct: made in house; host or cells: E. coli BL-21 (DE3)
T1 sequence (Q8IX12 951-980 limits assumed): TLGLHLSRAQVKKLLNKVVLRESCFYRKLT
Method: Although, several formats for FP are indicated in the published literature (Inglese, J., Johnson, R. L., Simeonov, A., Xia, M., Zheng, W., Austin, C. P., Auld, D. S. (2007) Nat. Chem. Biol. 3(8), 466-79), the assays using 96-well or higher density plates are often and routinely employed. Optimization of FP for HTS involves several steps including the determination of Kd values, optimization of the buffer conditions, incubation and measurement times, and determination of the DMSO tolerance of the assay. Our goal was to minimize variation and to aim for adequate signal:background without adversely effecting the sensitivity of the assay. The FP polarization values in milli-polarization (mp) were measured to determine changes in the mp (Amp=mp of bound peptide mp of free peptide), the Kd and Ki constants of the binding. A 30-mer CARP-1 peptide that contained APC-2-binding epitope (A-epitope peptide) was commercially synthesized (US Biologicals, MA), labeled with fluorescein at the N-terminus, and purified to >98% purity. Increasing concentrations of A-epitope peptide were incubated with the indicated quantities of the affinity-purified Gst-APC-2 (685-754) protein in assay buffer containing 0.01% triton-X100. Affinity-purified Gst-NEMO (221-317) was included as a negative control. The Δmp was measured by excitation at 485 nm and emission at 538 nm.
The kinetics of CARP-1 binding with APC-2 was determined, and whether this binding could be exploited to identify SMIs of CARP-1-APC-2 interaction was investigated. For this purpose, a FPA utilizing the affinity-purified Gst-APC-2 (685-754) protein and the fluorescein-tagged A-epitope peptide was developed as detailed in methods. […] The signal to background ratio of 6 underscored robustness of this assay. Since, the quality (precision) and suitability of the FPA for HTS is usually defined by the Z′ factor (25, 40), we utilized the positive and negative control mean signals (μc+ and μc−, respectively) and their standard deviations (σc+ and σc−) to calculate the Z′ factor using the equation Z′=1−[3(σc++σc−)/(μc+−μc−)]. […]

Row | SMILES | HBC cell growth / viability (MTT) ([1]; HBC cells, 72 h) | cell growth of MPM cells (MTT) ([1]; MPM cells, 72 h) | IC50 [2] | sensitivity of HBC cells compared with similar dose of CFM-1 and 5 (MTT) ([1]; HBC cells, 20 μM dose)
1 | Cc1cc(Br)cc2c1NC(=O)/C2=C1\SC(=S)NC1=O [CFM-1, (Z)-5-(5-bromo-7-methyl-2-oxoindolin-3-ylidene)-2-thioxothiazolidin-4-one] | suppressed viabilities | elicited activity towards select MPM cells | 4100 nM | –
2 | O=C1N(Cc2ccccc2Cl)c2ccccc2C12NN=C(c1ccccc1)S2 (stereo not drawn) [CFM-4, 1-(2-chlorobenzyl)-5′-phenyl-3′H-spiro[indoline-3,2′-[1,3,4]thiadiazol]-2-one] | suppressed viabilities | – | 750 nM | relative increased sensitivity
